Laboratory results taken from US20260374766A1, “METHODS FOR TREATING CANCER” (Antares Therapeutics, Inc., priority 2022, published 2026).

Columns and labels:
p53 Y220C = p53 Y220C (Homo sapiens, UniProt P04637, Y220C); assay: Luciferase Reporter Assay (Luc), p53 response element, NClH1299 cells with inducible p53 Y220C; type: cell-based; settings: luciferase reporter, NClH1299 inducible p53 Y220C, 6 hour; for AC50: read-out: Luc P53 Y220C AC50
Method in brief: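 24 h dox pre-induction (0.5 ug/mL), then 6 h compound; One-Glo luminescent read.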

H1299 p53 Y220C = assay: Cell Proliferation Assay (CellTiter-Glo, CTG), H1299 p53 Y220C (NClH1299-inducible p53 Y220C); type: cell-based; settings: Homo sapiens, NCI-H1299, 120 h, NClH1299-inducible p53 Y220C cells, 5 days, CellTiter-Glo
Method in brief: (§1)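 NClH1299 lines stably transduced with Tet-inducible p53 Y220C or R273H, plus NUGC3, were treated with compound for 5 days at 250-500 cells/well. IC50 derived from CellTiter-Glo luminescent signal after 10 min room-temperature incubation.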

NUGC3 p53 Y220C = assay: Cell Proliferation Assay (CellTiter-Glo, CTG), NUGC3 p53 Y220C; type: cell-based; settings: Homo sapiens, NUGC-3, 120 h, NUGC3 cells, 5 days, CellTiter-Glo
Method in brief: as §1

H1299 p53 R273H = assay: Cell Proliferation Assay (CellTiter-Glo, CTG), H1299 p53 R273H (NClH1299-inducible p53 R273H); type: cell-based; settings: Homo sapiens, NCI-H1299, 120 h, NClH1299-inducible p53 R273H cells, 5 days, CellTiter-Glo
Method in brief: as §1

[1] = molecular target: T1, p53 Y220C mutant protein (amino acid residues 94-293) (Homo sapiens, UniProt P04637, Y220C); assay: Surface Plasmon Resonance (SPR) assay, Kd_kinetic; type: binding; settings: SPR; p53 Y220C; read-out: SPR P53 Y220C KD kinetic
T1 construct: p53 Y220C mutant protein (amino acid residues 94-293)
Method in brief: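 Temperature held at 16 or 20 °C during Biacore 8K runs. Buffer: 50 mM Tris, pH 7.5, 100 mM NaCl, 1 mM DTT, 0.01% Brij35, 0.05% Tween-20, 1% DMSO.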

T1 sequence (P04637 94-293, stated change not applied): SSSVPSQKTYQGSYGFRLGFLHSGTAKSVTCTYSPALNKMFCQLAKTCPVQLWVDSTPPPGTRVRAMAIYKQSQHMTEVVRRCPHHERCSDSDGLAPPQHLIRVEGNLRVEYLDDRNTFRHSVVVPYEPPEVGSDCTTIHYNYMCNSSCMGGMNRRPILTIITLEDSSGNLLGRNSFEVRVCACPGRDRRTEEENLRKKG

AC50 (p53 Y220C) [nM]	Emax (p53 Y220C) [%]	IC50 (H1299 p53 Y220C) [nM]	IC50 (H1299 p53 R273H) [nM]	Kd [1] [nM]	SMILES	IC50 (NUGC3 p53 Y220C) [nM]
< 750	80 to 90	< 750	≥ 10000	< 10	CN1CC[C@@H](Nc2cccn3c(SC(F)(F)F)c(C#CCNc4ccc(P(C)(C)=O)nc4)cc23)[C@@H](F)C1 [Example 420, 2-(3-{[6-(dimethylphosphoryl)pyridin-3-yl]amino}prop-1-yn-1-yl)-N-[(3S,4R)-3-fluoro-1-methylpiperidin-4-yl]-3-[(trifluoromethyl)sulfanyl]indolizin-8-amine]	< 750
< 750	> 90	< 750	≥ 10000	< 10	COc1cc(C(=O)NC[C@@H](O)CO)ccc1NCC#Cc1cc2c(N[C@@H]3CCN(C)C[C@@H]3F)cccn2c1SC(F)(F)F [Example 421]	< 750
< 750	> 90	< 750	≥ 10000	< 10	COc1cc(C(=O)NC[C@H](O)CO)ccc1NCC#Cc1cc2c(N[C@@H]3CCN(C)C[C@@H]3F)cccn2c1SC(F)(F)F [Example 422]	< 750
< 750	> 90	< 750	8000 to 10000	< 10	COc1cc([S@@+](C)[O-])ccc1NCC#Cc1cc2c(N[C@@H]3CCN(C)C[C@@H]3F)cccn2c1SC(F)(F)F [Example 423]	< 750
< 750	> 90	< 750	≥ 10000	< 10	COc1ccc(C(=O)NCC(C)(C)O)cc1NCC#Cc1cc2c(N[C@@H]3CCN(C)C[C@@H]3F)cccn2c1SC(F)(F)F [Example 424]	< 750
< 750	> 90	< 750	8000 to 10000	< 10	CN1CC[C@@H](Nc2cccn3c(SC(F)(F)F)c(C#CCNc4ccc(C(=O)N[C@H]5C[C@H](O)C5)cc4)cc23)[C@@H](F)C1 [Example 426]	< 750
< 750	> 90	< 750	≥ 10000	< 10	CN1CC[C@@H](Nc2cccn3c(SC(F)(F)F)c(C#CCNc4ccc(C(=O)NCC5(O)CC5)cc4)cc23)[C@@H](F)C1 [Example 427]	< 750
< 750	80 to 90	< 750	≥ 10000	< 10	CN1CC[C@@H](Nc2cccn3c(SC(F)(F)F)c(C#CCNc4ccc(P(C)(C)=O)cn4)cc23)[C@@H](F)C1 [Example 428, 2-(3-{[5-(dimethylphosphoryl)pyridin-2-yl]amino}prop-1-yn-1-yl)-N-[(3S,4R)-3-fluoro-1-methylpiperidin-4-yl]-3-[(trifluoromethyl)sulfanyl]indolizin-8-amine]	< 750
< 750	80 to 90	< 750	≥ 10000	< 10	CN1CC[C@@H](Nc2cccn3c(SC(F)(F)F)c(C#CCNc4ccc(P(C)(C)=O)nn4)cc23)[C@@H](F)C1 [Example 429, 2-(3-{[6-(dimethylphosphoryl)pyridazin-3-yl]amino}prop-1-yn-1-yl)-N-[(3S,4R)-3-fluoro-1-methylpiperidin-4-yl]-3-[(trifluoromethyl)sulfanyl]indolizin-8-amine]	< 750
< 750	> 90	< 750	≥ 10000	< 10	CN1CC[C@@H](Nc2cccn3c(SC(F)(F)F)c(C#CCNc4ccc(C(=O)NCCS(C)(=O)=O)cc4)cc23)[C@@H](F)C1 [Example 430, 4-{[3-(8-{[(3S,4R)-3-fluoro-1-methylpiperidin-4-yl]amino}-3-[(trifluoromethyl)sulfanyl]indolizin-2-yl)prop-2-yn-1-yl]amino}-N-(2-methanesulfonylethyl)benzamide]	< 750
< 750	> 90	< 750	≥ 10000	< 10	C[C@H](O)CNC(=O)c1ccc(NCC#Cc2cc3c(N[C@@H]4CCN(C)C[C@@H]4F)cccn3c2SC(F)(F)F)cc1 [Example 431]	< 750
< 750	> 90	< 750	≥ 10000	< 10	CNC(=O)c1ccc(NCC#Cc2cc3c(N[C@@H]4CCN(C)C[C@@H]4F)cccn3c2SC(F)(F)F)c(C#N)c1 [Example 432, 3-cyano-4-{[3-(8-{[(3S,4R)-3-fluoro-1-methylpiperidin-4-yl]amino}-3-[(trifluoromethyl)sulfanyl]indolizin-2-yl)prop-2-yn-1-yl]amino}-N-methylbenzamide]	< 750
< 750	> 90	< 750	5000 to 8000	< 10	CNC(=O)c1ccc(NCC#Cc2cc3c(N[C@@H]4CCN(C)C[C@@H]4F)cccn3c2SC(F)(F)F)c(OC)n1 [Example 433, 5-{[3-(8-{[(3S,4R)-3-fluoro-1-methylpiperidin-4-yl]amino}-3-[(trifluoromethyl)sulfanyl]indolizin-2-yl)prop-2-yn-1-yl]amino}-6-methoxy-N-methylpyridine-2-carboxamide]	< 750
< 750	80 to 90	< 750	5000 to 8000	< 10	CNC(=O)c1ccc(NCC#Cc2cn3c(N[C@@H]4CCNC[C@@H]4F)cccc3c2SC(F)(F)F)c(OC)c1 [Example 434]	< 750
< 750	> 90	< 750	≥ 10000	< 10	CNC(=O)c1ccc(NCC#Cc2cc3c(N[C@@H]4CCNC[C@@H]4F)cccn3c2SC(F)(F)F)c(OC2COC2)c1 [Example 435]	< 750
< 750	> 90	< 750	≥ 10000	< 10	CNC(=O)c1ccc(NCC#Cc2cc3c(N[C@@H]4CCN(C)C[C@@H]4F)cccn3c2SC(F)(F)F)c(OCF)c1 [Example 436, 4-{[3-(8-{[(3S,4R)-3-fluoro-1-methylpiperidin-4-yl]amino}-3-[(trifluoromethyl)sulfanyl]indolizin-2-yl)prop-2-yn-1-yl]amino}-3-(fluoromethoxy)-N-methylbenzamide]	< 750
< 750	> 90	< 750	≥ 10000	< 10	CN1CC[C@@H](Nc2cccn3c(SC(F)(F)F)c(C#CCNc4ccc(P(C)(C)=O)c5ocnc45)cc23)[C@@H](F)C1 [Example 437, 7-(dimethylphosphoryl)-N-[3-(8-{[(3S,4R)-3-fluoro-1-methylpiperidin-4-yl]amino}-3-[(trifluoromethyl)sulfanyl]indolizin-2-yl)prop-2-yn-1-yl]-1,3-benzoxazol-4-amine]	< 750
< 750	80 to 90	< 750	≥ 10000	< 10	CS(=O)(=O)CCNC(=O)c1ccc(NCC#Cc2cc3c(N[C@@H]4CCNC[C@@H]4F)cccn3c2SC(F)(F)F)cc1 [Example 438]	< 750
< 750	> 90	< 750	8000 to 10000	< 10	CNC(=O)c1ccc(NCC#Cc2cn3c(N[C@@H]4CCN(C)C[C@@H]4F)cccc3c2SC(F)F)c(OC)c1 [Example 440]	< 750
< 750	> 90	< 750	≥ 10000	< 10	CN1CC[C@@H](Nc2cccn3c(SC(F)(F)F)c(C#CCNc4ccc(C(=O)NC[C@@H]5COCCO5)cc4)cc23)[C@@H](F)C1 [Example 441]	< 750
< 750	80 to 90	< 750	5000 to 8000	< 10	[2H]C([2H])([2H])Oc1cc(C(=O)NC)ccc1NCC#Cc1cc2c(N[C@@H]3CCN(C)C[C@@H]3F)cccn2c1SC(F)(F)F [Example 442, 4-((3-(8-(((3S,4R)-3-fluoro-1-methylpiperidin-4-yl)amino)-3-((trifluoromethyl)thio)indolizin-2-yl)prop-2-yn-1-yl)amino)-3-(methoxy-d3)-N-methylbenzamide]	< 750
< 750	> 90	< 750	≥ 10000	< 10	CNC(=O)c1ccc(OC)c(NCC#Cc2cc3c(N[C@@H]4CN(C)C[C@@H]4F)cccn3c2SC(F)(F)F)c1 [Example 444]	< 750
